From PubChem BioAssay (NCI)
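Cultured in 96-well plates, cells were exposed to test compound for 48 hours across five concentrations. TGI marks complete inhibition of growth.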

Tests used:
Assay in all cases: DTP human tumour cell line panel, 48 h
MALME-3M melanoma = tested on: MALME-3M melanoma
IGROV1 ovarian = tested on: IGROV1 ovarian
COLO 205 colon = tested on: COLO 205 colon
BT-549 breast = tested on: BT-549 breast
UO-31 renal = tested on: UO-31 renal
MDA-N = tested on: MDA-N
SK-OV-3 ovarian = tested on: SK-OV-3 ovarian
M14 melanoma = tested on: M14 melanoma
A498 renal = tested on: A498 renal
NCI-H460 lung = tested on: NCI-H460 lung
RXF 393 renal = tested on: RXF 393 renal

Compound | TGI (MALME-3M melanoma) [µM] | TGI (IGROV1 ovarian) [µM] | TGI (COLO 205 colon) [µM] | TGI (BT-549 breast) [µM] | TGI (UO-31 renal) [µM] | TGI (MDA-N) [µM] | TGI (SK-OV-3 ovarian) [µM] | TGI (M14 melanoma) [µM] | TGI (A498 renal) [µM] | TGI (NCI-H460 lung) [µM] | TGI (RXF 393 renal) [µM]
Clc1ccc(Nc2nnc(CNc3ccc(-c4nnc(Nc5ccc(Cl)cc5)s4)cc3)s2)cc1 | > 100 | > 100 | 45.3 | > 100 | 44.2 | 58.1 | > 100 | 58.4 | > 100 | > 100 | > 100
[N-]=[N+]=Nc1ccccc1-c1ccccc1[N+](=O)[O-] | > 100 | > 100 |  | > 100 | > 100 | > 100 | > 100 | > 100 | > 100 | 99 | > 100
O=c1[nH]nc(Cc2ccccc2)n1/N=C/c1cccs1 | > 100 |  | > 100 | > 100 | > 100 | > 100 | > 100 | > 100 | 63 | > 100 | > 100
CC(C)OC(=O)c1ccc(NCc2cc(O)ccc2O)cc1 | 5.2 | 15 | 9.48 | 12.4 | 2.91 | 13.2 | > 100 | 22.4 | > 100 | > 100 | 5.79
COc1ccc(Nc2nc3ccccc3n3cccc23)cc1OC | 32.9 | 52.3 | 27.4 | 49.3 | 39.2 | 29.4 | 63.5 | 30.7 | 55.8 | 27.5 | 33.1
Cc1cccc(C2ON=C(c3ccccc3)N2C23CC4CC(CC(C4)C2)C3)c1 (stereo not drawn) | > 10 | > 10 | > 10 | > 10 |  | > 10 | > 10 | > 10 | > 10 | > 10 | > 10
O=c1[nH]/c(=C/c2ccc3c(c2)OCO3)c(=O)[nH]/c1=C/c1ccc2c(c1)OCO2 | > 10 | > 10 | > 10 | > 10 | > 10 | > 10 | > 10 | > 10 | > 10 | > 10 | > 10
C#CC[C@@H]1C(=O)N(Cc2ccc(OC)cc2)[C@@H](C(C)C)C(=O)N1Cc1ccc(OC)cc1 | > 100 | > 100 | 37 | 93.7 | > 100 | 67.1 | > 100 | > 100 | > 100 | > 100 | 25.6
CC1(C)CCN2C(=O)C34CCCC3CC21S4 (stereo not drawn) | > 100 | > 100 | > 100 | > 100 | > 100 | > 100 | > 100 | > 100 | > 100 |  | > 100
FC(F)(F)c1ccccc1C1SCC2=Nc3ccccc3CN21 (stereo not drawn) |  | 29.7 | 25 | 44.2 | 24.1 | > 100 | 42 | 24.6 | 35.3 | 31.8 | 22
CC(C)C1CNC(=O)C2(C=NC(C(C)C)CNC(=O)C3(C=N1)CCCO3)CCCO2 (stereo not drawn) | > 10 | > 10 | > 10 | > 10 |  | > 10 | > 10 | > 10 | > 10 |  | > 10
Cc1ccc(S(=O)c2cccs2)cc1 (stereo not drawn) | > 100 |  | > 100 | > 100 | > 100 | > 100 |  | > 100 | > 100 | > 100 | > 100
CCOC(=O)C(NC(=O)OCc1ccccc1)C(=O)O (stereo not drawn) | > 100 | > 100 | > 100 | > 100 | > 100 | > 100 |  | > 100 | > 100 | > 100 | > 100
O=C1OC(c2ccccc2)=NC1c1ccccc1 (stereo not drawn) |  | > 100 | > 100 | > 100 | > 100 | > 100 | > 100 | > 100 | > 100 | > 100 | > 100
CCOC1OC(CO)C(O)CC1n1ccc(=O)[nH]c1=O (stereo not drawn) | > 100 | > 100 | > 100 | > 100 | > 100 | > 100 |  | > 100 | > 100 | > 100 | > 100
C[N+](C)(CCCCCC[N+](C)(C)CCCN1C(=O)c2cccc3cccc(c23)C1=O)CCCN1C(=O)c2cccc3cccc(c23)C1=O | > 100 | > 100 | > 100 | > 100 | > 100 | > 100 | > 100 |  | > 100 | > 100 | > 100
COc1nc(N=P(c2ccccc2)(c2ccccc2)c2ccccc2)cc(=O)n1C |  | > 100 | > 100 | > 100 | > 100 | > 100 | > 100 | > 100 | > 100 | > 100 | > 100
